From patent publication EP4803094A2, “GLP-1/GIP DUAL, GLP-1/GCG DUAL AND GLP-1/GIP/GCG TRIPLE RECEPTOR AGONISTS” (Sun Pharmaceutical Industries Limited, priority 2023, dated 2024)
Marks after values point to notes of the source that are not given here.

Experiments:
[1] = tested on: Type 2 diabetes mouse (db/db) model; experiment: Efficacy study in db/db mice (blood glucose, body weight, food consumption); assay type: in vivo; details: 10 nM/kg s.c. single dose, mean (n=6)
Protocol: The effect of the compounds as described herein on blood glucose, food intake and body weight were studied in mice. This study was performed in Type 2 diabetes mouse (db/db) model. The animals were divided into 9 treatment groups (n=6): a diabetic control group, Compound 12 (10 nM/kg), Compound 13 (10 nM/kg), Compound 26 (10 nM/kg), Compound 14 (10 nM/kg), Compound 15 (10 nM/kg), Compound 21 (10 nM/kg), Compound 22 (10 nM/kg), and Tirzepatide (10 nM/kg). Baseline blood glucose was measured from all the animals. All the animals were administered with test item subcutaneously. Blood glucose was measured at 4 hr, 8 hr, 12 hr, 24 hr, 48 hr, 72 hr, and 96 hr post treatment. Delta blood glucose (mM) was calculated. Body weight changes and cumulative food consumption were measured at 48 hr and 96 hr post treatment. Table 3. Effect on Blood Glucose

GCGR = GCGR (Homo sapiens, UniProt P47871); experiment: Hit Hunter cAMP assay in cells stably expressing GCGR; assay type: cell-based; details: values in nM, read-out: EC50 value GCG
Description: (§1) Stably expressing GLP-1R, GIPR or GCGR cell lines were used to determine in-vitro potency of the compounds as described herein. Signaling by the GLP-1R, GIP-R, and GCG-R involves activation of adenylate cyclase and cAMP production. Hit Hunter® cAMP assays monitor the activation of GLP-1R, GIPR or GCGR via Gi and Gs secondary messenger signaling using a technology developed by DiscoverX which is called Enzyme Fragment Complementation (EFC) with β-galactosidase (β-Gal) as the functional reporter. The enzyme is split into two complementary portions: EA for Enzyme Acceptor and ED for Enzyme Donor. ED is fused to cAMP and in the assay competes with cAMP generated by cells for binding to a cAMP-specific antibody. Active β-Gal is formed by complementation of exogenous EA to any unbound ED cAMP. Active enzyme can then convert a chemiluminescent substrate, generating an output signal detectable on a standard microplate reader. Three different assays were performed using cells expressing either of the three receptors. cAMP Hunter cell lines were expanded from freezer stocks according to standard procedures. […] Microplates were read following signal generation with a PerkinElmer EnvisionTM instrument for chemiluminescent signal detection. […] Four parametric logistic curve was generated and EC50 was determined. […]

GIPR = target: T1, GIPR (Homo sapiens, UniProt P48546); experiment: Hit Hunter cAMP assay in cells stably expressing GIPR; assay type: cell-based; details: values in nM, read-out: EC50 value GIP
T1 sequence (P48546 22-466): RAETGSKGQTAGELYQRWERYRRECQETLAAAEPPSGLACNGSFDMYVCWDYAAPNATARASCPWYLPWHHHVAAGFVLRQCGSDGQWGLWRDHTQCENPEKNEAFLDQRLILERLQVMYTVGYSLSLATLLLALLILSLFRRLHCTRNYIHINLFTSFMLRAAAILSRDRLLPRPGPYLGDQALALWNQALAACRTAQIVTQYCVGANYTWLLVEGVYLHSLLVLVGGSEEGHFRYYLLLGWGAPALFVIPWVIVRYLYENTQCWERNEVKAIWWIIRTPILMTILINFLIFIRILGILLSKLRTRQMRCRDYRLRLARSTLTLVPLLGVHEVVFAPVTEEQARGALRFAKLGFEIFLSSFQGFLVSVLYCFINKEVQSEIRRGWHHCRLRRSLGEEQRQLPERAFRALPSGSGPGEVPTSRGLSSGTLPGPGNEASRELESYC
Description: as §1

GLP-1R = GLP-1R (Homo sapiens, UniProt P43220); experiment: Hit Hunter cAMP assay in cells stably expressing GLP-1R; assay type: cell-based; details: GLP-1R-expressing cells, values in nM
Description: as §1

Sequence of GLP-1R (P43220 24-463, species assumed): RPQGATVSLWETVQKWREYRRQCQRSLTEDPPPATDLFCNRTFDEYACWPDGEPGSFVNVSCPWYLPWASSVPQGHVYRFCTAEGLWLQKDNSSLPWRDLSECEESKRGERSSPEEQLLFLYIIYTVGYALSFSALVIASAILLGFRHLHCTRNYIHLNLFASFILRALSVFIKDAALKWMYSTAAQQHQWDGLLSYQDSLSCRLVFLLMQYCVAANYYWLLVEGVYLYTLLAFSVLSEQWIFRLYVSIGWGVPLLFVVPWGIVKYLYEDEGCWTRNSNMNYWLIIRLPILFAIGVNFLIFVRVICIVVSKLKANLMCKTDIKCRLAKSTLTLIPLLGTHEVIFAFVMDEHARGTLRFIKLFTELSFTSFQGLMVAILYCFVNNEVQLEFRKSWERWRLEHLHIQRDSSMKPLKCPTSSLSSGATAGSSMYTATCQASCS
Sequence of GCGR (P47871 26-477, species assumed): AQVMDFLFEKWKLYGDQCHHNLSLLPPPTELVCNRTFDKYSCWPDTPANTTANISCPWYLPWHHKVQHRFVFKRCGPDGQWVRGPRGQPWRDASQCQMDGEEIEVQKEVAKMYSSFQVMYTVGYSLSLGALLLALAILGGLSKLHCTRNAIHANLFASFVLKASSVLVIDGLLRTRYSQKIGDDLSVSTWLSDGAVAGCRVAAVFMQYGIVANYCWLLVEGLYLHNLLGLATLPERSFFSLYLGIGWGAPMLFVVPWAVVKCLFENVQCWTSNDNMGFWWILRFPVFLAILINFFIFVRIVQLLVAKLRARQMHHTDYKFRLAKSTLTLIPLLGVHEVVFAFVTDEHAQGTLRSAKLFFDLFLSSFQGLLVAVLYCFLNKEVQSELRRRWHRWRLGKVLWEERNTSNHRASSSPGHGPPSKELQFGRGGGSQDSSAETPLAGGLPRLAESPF

Compound: CC[C@H](C)[C@H](NC(=O)[C@H](Cc1ccccc1)NC(=O)[C@H](C)NC(=O)C(C)(C)NC(=O)[C@H](CCC(N)=O)NC(=O)[C@H](C)NC(=O)[C@H](CCCCNC(=O)COCCOCCNC(=O)C(C)(C)NC(=O)CC[C@H](NC(=O)CCCCCCCCCCCCCCCCCCC(=O)O)C(=O)O)NC(=O)[C@H](CCCCN)NC(=O)[C@H](CC(=O)O)NC(=O)[C@H](CC(C)C)NC(=O)[C@](C)(CC(C)C)NC(=O)[C@@H](NC(=O)[C@H](CO)NC(=O)[C@H](Cc1ccc(O)cc1)NC(=O)[C@H](CC(=O)O)NC(=O)[C@H](CO)NC(=O)[C@@H](NC(=O)[C@H](Cc1ccccc1)NC(=O)[C@@H](NC(=O)CNC(=O)[C@H](CCC(N)=O)NC(=O)C(C)(C)NC(=O)[C@@H](N)Cc1ccc(O)cc1)[C@@H](C)O)[C@@H](C)O)[C@@H](C)CC)C(=O)N[C@@H](CCC(=O)O)C(=O)N[C@@H](Cc1ccc(O)cc1)C(=O)N[C@@H](CC(C)C)C(=O)N[C@@H](CC(C)C)C(=O)N[C@@H](CCC(=O)O)C(=O)NCC(=O)NCC(=O)N1CCC[C@H]1C(=O)N[C@@H](CO)C(=O)N[C@@H](CO)C(=O)NCC(=O)N[C@@H](C)C(=O)N1CCC[C@H]1C(=O)N1CCC[C@H]1C(=O)N1CCC[C@H]1C(=O)N[C@@H](CO)C(N)=O [Compound 13]
- Cumulative Food Consumption (g) 0-48 hr ([1]; 0-48 hr): 4.1*** g
- Cumulative Food Consumption (g) 0-96 hr ([1]; 0-96 hr): 11.2*** g
- Delta Blood Glucose (mM) ([1]; 4 hr post treatment): -7.4* mM
- Delta Blood Glucose ([1]; 8 hr post treatment): -5.7 mM
- Delta Blood Glucose (mM) ([1]; 12 hr post treatment): -9.4** mM
- Delta Blood Glucose (mM) ([1]; 24 hr post treatment): -14.4*** mM
- Delta Blood Glucose (mM) ([1]; 48 hr post treatment): -13.9*** mM
- Body Weight Change (%) 48 hr ([1]; 48 hr): -10.3*** %
- Delta Blood Glucose (mM) ([1]; 72 hr post treatment): -12.1*** mM
- Delta Blood Glucose ([1]; 96 hr post treatment): -5.6 mM
- Body Weight Change (%) 96 hr ([1]; 96 hr): -6.3*** %
- EC50 (GCGR): > 1.8 nM
- EC50 (GIPR): > 1.5 nM
- EC50 (GLP-1R): > 2.4 nM
